Type in all cases: biochemical
The target of one assay is T1, ABHD6 (Mus musculus, UniProt Q8R2Y0).
T1 construct: Brain; from tissue; host or cells: mouse brain proteome
T1 sequence (Q8R2Y0 1-336): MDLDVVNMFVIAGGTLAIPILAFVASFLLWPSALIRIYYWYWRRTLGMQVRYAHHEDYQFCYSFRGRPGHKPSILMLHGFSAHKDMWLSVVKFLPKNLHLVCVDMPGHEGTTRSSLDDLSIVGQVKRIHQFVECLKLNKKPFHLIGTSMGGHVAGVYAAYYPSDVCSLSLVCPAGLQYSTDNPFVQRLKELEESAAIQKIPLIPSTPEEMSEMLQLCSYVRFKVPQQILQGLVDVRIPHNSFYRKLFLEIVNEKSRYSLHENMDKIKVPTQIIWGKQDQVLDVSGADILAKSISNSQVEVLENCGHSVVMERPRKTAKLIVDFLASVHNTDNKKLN
As to the kind of experiment: In vitro competitive activity-based protein profiling, mouse brain proteome (ABHD6). To be noted: mouse brain proteome; concentration not given (μM). Here is the method:
[The source words this procedure for another target and reports this target under the same test.] (§1) In Vitro Competitive Activity-Based Protein Profiling.
(§2) Proteomes (human prefrontal cortex or cell membrane fractions) (50 μL, 1.0 mg/mL total protein concentration) were preincubated with varying concentrations of inhibitors at 37° C. After 30 min, FP-Rh or HT-01 (1.0 μL, 50 μM in DMSO) was added and the mixture was incubated for another 30 min at room temperature. Reactions were quenched with SDS loading buffer (15 μL-4×) and run on SDS-PAGE.

A further assay addresses T2, MAGL (Homo sapiens, UniProt Q99685).
T2 construct: Proteomes (human prefrontal cortex or cell membrane fractions); from tissue
T2 sequence (Q99685 1-303): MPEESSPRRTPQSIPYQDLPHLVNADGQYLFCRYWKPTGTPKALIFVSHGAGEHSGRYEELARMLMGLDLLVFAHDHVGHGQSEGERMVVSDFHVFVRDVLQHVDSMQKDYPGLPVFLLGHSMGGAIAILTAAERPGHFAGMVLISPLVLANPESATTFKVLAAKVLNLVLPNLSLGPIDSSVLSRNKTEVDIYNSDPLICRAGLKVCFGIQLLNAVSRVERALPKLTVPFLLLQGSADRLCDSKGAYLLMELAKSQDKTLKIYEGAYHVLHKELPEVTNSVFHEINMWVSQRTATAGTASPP
As to the kind of experiment: In vitro competitive activity-based protein profiling (FP-Rh or HT-01 probe, gel-based). The arrangement: IC50 MGLL PC3 (Human, μM) / IC50 MGLL PFC (Human, μM): scale not given here. Conditions: for IC50 MGLL PC3 (Human, μM) / % Inh MGLL PC3 (Human, μM): PC3 cell proteome; for % Inh MGLL PFC (Human, μM) / IC50 MGLL PFC (Human, μM): prefrontal cortex (PFC) proteome; for % Inh MGLL PFC (Human, μM) / % Inh MGLL PC3 (Human, μM): concentration not given (μM). The protocol: as §1, §2

Another assay concerns the target T3, MGLL (Mus musculus, UniProt O35678).
T3 construct: Brain; from tissue; host or cells: mouse brain proteome
T3 sequence (O35678 1-303): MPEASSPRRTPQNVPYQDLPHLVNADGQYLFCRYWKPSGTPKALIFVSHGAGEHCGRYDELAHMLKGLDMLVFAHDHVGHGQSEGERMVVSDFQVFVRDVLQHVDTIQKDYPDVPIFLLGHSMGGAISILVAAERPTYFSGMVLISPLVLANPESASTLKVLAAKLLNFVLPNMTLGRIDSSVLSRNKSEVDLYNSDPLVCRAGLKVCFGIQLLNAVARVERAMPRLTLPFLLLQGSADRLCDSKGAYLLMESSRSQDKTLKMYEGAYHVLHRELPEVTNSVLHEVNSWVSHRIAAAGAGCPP
As to the kind of experiment: In vitro competitive activity-based protein profiling, mouse brain proteome (MGLL). To be noted: concentration not given (μM).

Molecules are shown by their SMILES.

Consider `CC1(C(=O)O)CN(c2cc(CN3CC4(CCN(C(=O)OC(C(F)(F)F)C(F)(F)F)CC4)C3)cc(C(F)(F)F)c2)CCO1` (stereo not shown) [Example 22, 4-(3-((7-(((1,1,1,3,3,3-Hexafluoropropan-2-yl)oxy)carbonyl)-2,7-diazaspiro[3.5]nonan-2-yl)methyl)-5-(trifluoromethyl)phenyl)-2-methylmorpholine-2-carboxylic acid], for which the “% Inh ABHD6 Brain (Mouse, μM)” value at ABHD6 is given as “### (### is ≥75%)”. Further, at MAGL, the “IC50 MGLL PC3 (Human, μM)” value is reported as “* * *” and the “% Inh MGLL PFC (Human, μM)” value was “### (### is ≥75%)”. Further, the “% Inh MGLL Brain (Mouse, μM)” value at MGLL was “### (### is ≥75%)”.
Take `O=C(O)C1CCCCN1c1cc(C(F)(F)F)ccc1CN1CC2(CCN(C(=O)OC(C(F)(F)F)C(F)(F)F)CC2)C1` (stereo not shown) [Example 23, 1-(2-((7-(((1,1,1,3,3,3-Hexafluoropropan-2-yl)oxy)carbonyl)-2,7-diazaspiro[3.5]nonan-2-yl)methyl)-5-(trifluoromethyl)phenyl)piperidine-2-carboxylic acid]: the “% Inh ABHD6 Brain (Mouse, μM)” value on ABHD6 was “# (# is ≤25%)”. For the same compound, on MAGL, the “% Inh MGLL PFC (Human, μM)” value is “### (### is ≥75%)”. Further, the “% Inh MGLL Brain (Mouse, μM)” value on MGLL is “# (# is ≤25%)”.
Regarding `CN(Cc1ccc(C(F)(F)F)cc1-c1nnn[nH]1)C1(C)CCN(C(=O)OC(C(F)(F)F)C(F)(F)F)CC1` [Example 24, 1,1,1,3,3,3-Hexafluoropropan-2-yl 4-((2-(1H-tetrazol-5-yl)-4-(trifluoromethyl)benzyl)(methyl)amino)-4-methylpiperidine-1-carboxylate], at ABHD6, the “% Inh ABHD6 Brain (Mouse, μM)” value is “## (## is between 25 and 75%)”. In addition, on MAGL, the “IC50 MGLL PC3 (Human, μM)” value is “* * *” and the “% Inh MGLL PFC (Human, μM)” value is “### (### is ≥75%)”. Besides, the “% Inh MGLL Brain (Mouse, μM)” value at MGLL is “### (### is ≥75%)”.
Take `CC1(OCc2cc(CN3CCC(C(=O)O)CC3)cc(C(F)(F)F)c2)CCN(C(=O)OC(C(F)(F)F)C(F)(F)F)CC1` [Example 25, 1-(3-(((1-(((1,1,1,3,3,3-Hexafluoropropan-2-yl)oxy)carbonyl)-4-methylpiperidin-4-yl)oxy)methyl)-5-(trifluoromethyl)benzyl)piperidine-4-carboxylic acid]: the “% Inh ABHD6 Brain (Mouse, μM)” value at ABHD6 is reported as “### (### is ≥75%)”. Besides, at MAGL, the “IC50 MGLL PC3 (Human, μM)” value is on record as “* * *” and the “% Inh MGLL PC3 (Human, μM)” value was “### (### is ≥75%)”. Further, the “% Inh MGLL Brain (Mouse, μM)” value at MGLL is “### (### is ≥75%)”.
For `CN(Cc1ccc(C(F)(F)F)cc1N1CCN(CC(=O)O)CC1)C1(C)CCN(C(=O)OC(C(F)(F)F)C(F)(F)F)CC1` [Example 26, 2-(4-(2-(((1-(((1,1,1,3,3,3-Hexafluoropropan-2-yl)oxy)carbonyl)-4-methylpiperidin-4-yl)(methyl)amino)methyl)-5-(trifluoromethyl)phenyl)piperazin-1-yl)acetic acid], the “% Inh ABHD6 Brain (Mouse, μM)” value on ABHD6 is recorded as “### (### is ≥75%)”. At MAGL, the “IC50 MGLL PC3 (Human, μM)” value was “* * *”; the “% Inh MGLL PC3 (Human, μM)” value is listed as “### (### is ≥75%)”; the “IC50 MGLL PFC (Human, μM)” value is “* * *”. Also, the “% Inh MGLL Brain (Mouse, μM)” value at MGLL is listed as “### (### is ≥75%)”.
Consider `CN(Cc1ccc(C(F)(F)F)cc1N1CC2CC1CN2CC(=O)O)C1(C)CCN(C(=O)OC(C(F)(F)F)C(F)(F)F)CC1` (stereo not shown) [Example 27, 2-(5-(2-(((1-(((1,1,1,3,3,3-Hexafluoropropan-2-yl)oxy)carbonyl)-4-methylpiperidin-4-yl)(methyl)amino)methyl)-5-(trifluoromethyl)phenyl)-2,5-diazabicyclo[2.2.1]heptan-2-yl)acetic acid], for which the “% Inh ABHD6 Brain (Mouse, μM)” value at ABHD6 is on record as “### (### is ≥75%)”. In addition, at MAGL, the “IC50 MGLL PC3 (Human, μM)” value was “* * *”; the “% Inh MGLL PC3 (Human, μM)” value is on record as “### (### is ≥75%)”; the “IC50 MGLL PFC (Human, μM)” value is “* * *”. In addition, on MGLL, the “% Inh MGLL Brain (Mouse, μM)” value is reported as “### (### is ≥75%)”.
On to `O=C(OC(C(F)(F)F)C(F)(F)F)N1CCC2(CCCN2C(=O)c2ccc(C(F)(F)F)cc2)CC1` [Example 83, 1,1,1,3,3,3-Hexafluoropropan-2-yl 1-(4-(trifluoromethyl)benzoyl)-1,8-diazaspiro[4.5]decane-8-carboxylate], for which the “% Inh ABHD6 Brain (Mouse, μM)” value at ABHD6 is “### (### is ≥75%)”. Also, the “% Inh MGLL PFC (Human, μM)” value on MAGL was “### (### is ≥75%)”. In addition, the “% Inh MGLL Brain (Mouse, μM)” value at MGLL was “### (### is ≥75%)”.
As for `O=C(O)C1CCN(c2cc(CN3CC4(CCN(C(=O)OC(C(F)(F)F)C(F)(F)F)CC4)C3)cc(C(F)(F)F)c2)CC1` [Example 99, 1-(3-((7-(((1,1,1,3,3,3-Hexafluoropropan-2-yl)oxy)carbonyl)-2,7-diazaspiro[3.5]nonan-2-yl)methyl)-5-(trifluoromethyl)phenyl)piperi-dine-4-carboxylic acid], the “% Inh ABHD6 Brain (Mouse, μM)” value on ABHD6 is given as “### (### is ≥75%)”. At MAGL, the “% Inh MGLL PFC (Human, μM)” value is on record as “### (### is ≥75%)”. In addition, the “% Inh MGLL Brain (Mouse, μM)” value at MGLL was “### (### is ≥75%)”.
On to `O=C(O)C1CN(c2cc(CN3CC4(CCN(C(=O)OC(C(F)(F)F)C(F)(F)F)CC4)C3)cc(C(F)(F)F)c2)CCO1` (stereo not shown) [Example 100, 4-(3-((7-(((1,1,1,3,3,3-Hexafluoropropan-2-yl)oxy)carbonyl)-2,7-diazaspiro[3,5]nonan-2-yl)methyl)-5-(trifluoromethyl)phenyl)morph-oline-2-carboxylic acid], for which, at ABHD6, the “% Inh ABHD6 Brain (Mouse, μM)” value is on record as “### (### is ≥75%)”. Besides, the “% Inh MGLL PFC (Human, μM)” value on MAGL is reported as “### (### is ≥75%)”. Also, on MGLL, the “% Inh MGLL Brain (Mouse, μM)” value is “### (### is ≥75%)”.
`O=C(O)C1CCN(c2cc(C(F)(F)F)ccc2CN2CC3(CCN(C(=O)OC(C(F)(F)F)C(F)(F)F)CC3)C2)C1` (stereo not drawn) [Example 101, l-(2-((7-(((1,1,1,3,3,3-Hexafluoropropan-2-yl)oxy)carbonyl)-2,7-diazaspiro[3,5]nonan-2-yl)methyl)-5-(trifluoromethyl)phenyl)pyrroli-dine-3-carboxylic acid]: the “% Inh ABHD6 Brain (Mouse, μM)” value on ABHD6 is recorded as “### (### is ≥75%)”. Also, on MAGL, the “% Inh MGLL PFC (Human, μM)” value is on record as “### (### is ≥75%)”. Besides, on MGLL, the “% Inh MGLL Brain (Mouse, μM)” value is given as “### (### is ≥75%)”.
`O=C(O)C1CCN(c2cc(C(F)(F)F)ccc2CN2CC3(CCN(C(=O)OC(C(F)(F)F)C(F)(F)F)CC3)C2)CC1` [Example 102, l-(2-((7-(((U,l,3,3,3-Hexafluoropropan-2-yl)oxy)carbonyl)-2,7-diazaspiro[3.5]nonan-2-yl)methyl)-5-(trifluoromethyl)phenyl)piperi-dine-4-carboxylic acid]: the “% Inh ABHD6 Brain (Mouse, μM)” value at ABHD6 is given as “### (### is ≥75%)”. In addition, the “% Inh MGLL PFC (Human, μM)” value at MAGL is given as “### (### is ≥75%)”. Besides, on MGLL, the “% Inh MGLL Brain (Mouse, μM)” value is “### (### is ≥75%)”.
For `O=C(O)C1COCCN1c1cc(CN2CC3(CCN(C(=O)OC(C(F)(F)F)C(F)(F)F)CC3)C2)cc(C(F)(F)F)c1` (stereo not shown) [Example 103], the “% Inh ABHD6 Brain (Mouse, μM)” value on ABHD6 is “## (## is between 25 and 75%)”. Also, on MAGL, the “% Inh MGLL PFC (Human, μM)” value was “### (### is ≥75%)”. Also, on MGLL, the “% Inh MGLL Brain (Mouse, μM)” value is “### (### is ≥75%)”.
With `O=C(O)C1CCN(c2cc(CN3CC4(CCN(C(=O)OC(C(F)(F)F)C(F)(F)F)CC4)C3)cc(C(F)(F)F)c2)C1` (stereo not drawn) [Example 104, l-(3-((7-(((1,1,1,3,3,3-Hexailuoropropan-2-yl)oxy)carbonyl)-2,7-diazaspiro[3.5]nonan-2-yl)methyl)-5-(trifluoromethyl)phenyl) pyrrolidine-3-carboxylic acid], the “% Inh ABHD6 Brain (Mouse, μM)” value at ABHD6 is listed as “### (### is ≥75%)”. For the same compound, the “% Inh MGLL PFC (Human, μM)” value on MAGL was “### (### is ≥75%)”. Besides, the “% Inh MGLL Brain (Mouse, μM)” value on MGLL is “### (### is ≥75%)”.
For the compound `O=C(O)[C@@H]1CCCN(c2cc(CN3CC4(CCN(C(=O)OC(C(F)(F)F)C(F)(F)F)CC4)C3)cc(C(F)(F)F)c2)C1` [Example 105, (R)-1-(3-((7-(((1,1,1,3,3,3-Hexafluoropropan-2-yl)oxy)carbonyl)-2,7-diazaspiro[3,5]nonan-2-yl)methyl)-5-(trifluoromethyl)phenyl) piperidine-3-carboxylic acid], the “% Inh ABHD6 Brain (Mouse, μM)” value on ABHD6 was “### (### is ≥75%)”. Also, at MAGL, the “% Inh MGLL PFC (Human, μM)” value was “### (### is ≥75%)”. The “% Inh MGLL Brain (Mouse, μM)” value at MGLL was “### (### is ≥75%)”.

For the origin of these results see patent US11161856B2 (H. Lundbeck A/S, priority 2017, dated 2021).
